In PMC8777613, “Effect of Hydroxyl Groups Esterification with Fatty Acids on the Cytotoxicity and Antioxidant Activity of Flavones” (Molecules, 2022):
Read-outs that look alike come from different tables or passages of the source.

Tests used:
[1] = tested on: rat brain homogenate; experiment: Lipid peroxidation (MDA/TBA) induced by FeCl2 and ascorbic acid; format: biochemical; conditions: for MDA concentration: oxidation by 0.1% FeCl2 and 1 mM ascorbic acid, 1 h 37 °C, control 9.644 ± 1.570
Procedure: The antioxidant potential of the new flavone derivatives was assessed based on the analysis of malondialdehyde concentration formed as a product of lipid oxidation stimulated by iron (II) ions.
After preparation, the brain was placed on an ice plate and washed with cold 0.9% NaCl. 10% (m/v) brain solution was obtained by homogenization in cold 10 mM TRIS-HCl buffer, pH = 7.5. The homogenate was centrifuged (2000 rpm, 10 min, 4 °C) to obtain supernatant 1 (S1).
100 µM stock solutions of test compounds in DMSO were prepared. The test compound solution was added to a […] S1 homogenate to a final concentration of 10 µM.
The oxidation reaction was induced by adding to the samples with or without the test compounds freshly prepared solutions: 0.1% FeCl2 (0.2 mL) and 1 mM ascorbic acid (0.4 mL). After incubation for 1 h at 37 °C, the reaction was stopped by adding 8.1% sodium dodecyl sulfate (SDS) solution. In order to determine the concentration of MDA, the acetic acid/HCl buffer at pH = 3.4 and 120 μL of 0.8% thiobarbituric acid (TBA) solution at pH = 6 were added to the samples. The samples were incubated for 1 h at 100 °C. After incubation, the samples were cooled on ice and centrifuged for 10 min at 4000 RPM. The absorbance was measured at a wavelength of 532 nm. Blank content: 0.5 mL of acetate buffer + 0.5 mL of TBA solution.
Calculation of malondialdehyde (MDA) concentration (Equation (1)):(1) MDA concentration=∆ A532 nm × 1.56 ×10^−6 [nmol MDA/h/g tissue]

[2] = tested on: human prostate cancer cells (PC3); experiment: MTT dye reduction viability test, PC3; format: cell-based; conditions: for IC50 / viability at 10 µM / viability at 20 µM / viability at 40 µM / viability at 60 µM / viability at 80 µM / viability at 100 µM: Homo sapiens; for IC50: read-out: Cytotoxic activity IC50, PC3; for viability at 10 µM: PC3, 10 µM; for viability at 20 µM: PC3, 20 µM; for viability at 40 µM: PC3, 40 µM; for viability at 60 µM: PC3, 60 µM; for viability at 80 µM: PC3, 80 µM
Procedure: (§1) We have chosen two types of cell culture lines: human prostate cancer cells (PC3) and normal human immortal keratinocyte cells (HaCaT) (Table 1).
(§2) Human prostate cancer cells (PC3) and human immortal keratinocyte cell line from adult human skin (HaCaT) were obtained from American Type Culture Collection (Teddington, UK) and cultured according to its instructions RPMI 1640 (L0490) medium or DMEM (L0102) medium, respectively, in a 95% air and 5% CO2 humidified incubator at 37 °C. Both media (Biowest) were supplemented with 10% fetal bovine serum (FBS), 100 U/mL penicillin and 100 μg/mL streptomycin. 10 mM stock solutions of tested compounds in DMSO were prepared.
(§3) To assess the cells growth inhibition, the MTT dye reduction test was preformed based on the method described by Präbst et al.. Both PC3 and HaCaT cells (1 × 10^3/well) were seeded into 96-well plates and incubated for 24 h to attach to the bottom of the well in appropriate medium (200 μL) and treated with tested compounds (0–100 μM). The medium with compounds was removed after 72 h and MTT (0.5 mg/mL) in fresh growth medium without serum was added to each well. The plates were incubated in dark for 4 h at 37 °C. Then, the solution in each well was removed and refilled with 100 μL DMSO: isopropanol (1:1) to dissolve formazon crystals. The optical density was measured with an UVM 340 (ASYS Hitech GmbH, Austria) microplate reader at 570 nm. Replicates of three wells for each dosage, including vehicle control, were analyzed for each experiment. The experiments were conducted in triplicate. The results are expressed as IC50 values. The value of IC50 was estimated using CompuSyn version 1.0.

[3] = MTT dye reduction viability test, HaCaT; format: cell-based, human; conditions: human; for viability at 72 h, 10 µM / viability at 72 h, 20 µM / viability at 72 h, 40 µM / viability at 72 h, 60 µM / viability at 72 h, 80 µM / viability at 72 h, 100 µM: HaCaT
Procedure: as §1, §2, §3

[4] = 72 h, representative MTT result (Table S1 A)
[5] = PC3, 100 µM, 72 h, representative MTT result (Table S1 A), read-out: Cells viability
[6] = HaCaT cells (immortal keratinocytes), 72 h exposure, MTT, mean ± SD, read-out: Cytotoxic activity IC50, HaCaT
[7] = HaCaT cells (immortal keratinocytes), 72 h, representative MTT result (Table S1 B)
[8] = HaCaT cells (immortal keratinocytes), 100 µM, 72 h, representative MTT result (Table S1 B), read-out: Cells viability

Structure (SMILES) | MDA concentration ([1]; 10 µM compound) [mM × 10^−3] | IC50 ([2]; 72 h exposure, MTT, mean ± SD) [µM] | viability at 10 µM [2, 4] [%] | viability at 20 µM [2, 4] [%] | viability at 40 µM [2, 4] [%] | viability at 60 µM [2, 4] [%] | viability at 80 µM [2, 4] [%] | viability at 100 µM [2, 5] [%] | IC50 at 72 h [3, 6] [µM] | viability at 72 h, 10 µM [3, 7] [%] | viability at 72 h, 20 µM [3, 7] [%] | viability at 72 h, 40 µM [3, 7] [%] | viability at 72 h, 60 µM [3, 7] [%] | viability at 72 h, 80 µM [3, 7] [%] | viability at 72 h, 100 µM [3, 8] [%] | other results
O=C1CC(c2ccccc2)Oc2ccc(O)cc21 (stereo not shown) [6-Hydroxy-Flavanone, 6-hydroxy-flavanone, reference compound] | 7.077 ± 1.815 | > 100 | 96.4 | 96 | 96 | 96.7 | 96.4 | 96.8 | > 100 | 99.7 | 115 | 113 | 104 | 72.2 | 74.4 | reduction of the level of MDA compared to the control sample ([1]; 10 µM compound, rat brain homogenate): 26.62%; viability at 100 µM ([2]; PC3, 100 μM, 72 h incubation, read-out: cells viability compared to control cells): 89%; viability at 72 h, 100 µM ([3]; HaCaT cells (immortal keratinocytes), 100 μM, 72 h incubation, read-out: cells viability compared to control cells): 73%
CCCCCC=CCC=CCCCCCCCC(=O)Oc1ccc2c(c1)C(=O)CC(c1ccccc1)O2 (stereo not shown) [6-Linoleic-Flavanone, 6-hydroxy-flavanone linoleic ester] |  | 48.3 ± 8.73 | 94.7 | 76.5 | 53.3 | 45.4 | 31.2 | 20.2 | 80 ± 4.75 | 95.7 | 93.8 | 86.8 | 73.4 | 50.3 | 34.9 | 
CC=CC=CC(=O)Oc1ccc2c(c1)C(=O)CC(c1ccccc1)O2 (stereo not shown) [6-Sorbic-Flavanone, 6-hydroxy-flavanone sorbic ester] | 6.938 ± 0.392 | 54.7 ± 5.25 | 95.6 | 88.7 | 82.1 | 41.3 | 28.7 | 32.6 | 79.8 ± 2.21 | 98.7 | 96.7 | 89.6 | 75.7 | 56.7 | 31.4 | antioxidant potential compared to the original compound (in words) ([1]; MDA in rat brain homogenate): slight increase in antioxidant potential; melting point: 129.4 to 130.8 °C
CCCCCC=CCC=CCCCCCCCC(=O)Oc1ccc2c(=O)cc(-c3ccccc3)oc2c1 [7-Linoleic-Flavone, 7-hydroxy-flavone linoleic ester] | 8.010 ± 0.008 | 41.2 ± 2.3 | 84.6 | 70.4 | 46.7 | 35.9 | 34.3 | 39.5 | 65 ± 4.12 | 88.4 | 73.2 | 74.5 | 57 | 44.6 | 34 | 
CCC=CCC=CCC=CCCCCCCCC(=O)Oc1ccc2c(=O)cc(-c3ccccc3)oc2c1 [7-Linolenic-Flavone, 7-hydroxy-flavone linolenic ester] |  | > 100 | 90.2 | 86.3 | 81.7 | 79.4 | 86.8 | 86.7 | 45.4 ± 9.2 | 106 | 90.5 | 66 | 19.4 | 15.8 | 14.6 | cytotoxic potential in PC3 cells (in words) ([2]; PC3, 0–100 μM, 72 h): no cytotoxic potential
CCCCCCCCC=CCCCCCCCC(=O)Oc1ccc2c(=O)cc(-c3ccccc3)oc2c1 [7-Oleic-Flavone, 7-hydroxy-flavone oleic ester] | 8.465 ± 0.834 | 39.3 ± 2.11 | 92.2 | 80.8 | 48.2 | 41 | 42.2 | 38.9 | 44.9 ± 6.44 | 95.3 | 79.3 | 51.9 | 39.9 | 38.7 | 44.9 | melting point: 73.3 to 74.5 °C
O=c1cc(-c2ccccc2)oc2ccc(O)cc12 [Compound 13, 6-Hydroxy-Flavone, reference compound] |  |  | 89.4 | 87.8 | 99 | 110 | 87 | 73.2 |  | 96.4 | 83.8 | 77.9 | 95.1 | 84.9 | 87.8 | 
COc1cccc2c1C(=O)c1c(O)c3c(c(O)c1C2=O)C[C@@](O)(C(=O)CO)C[C@@H]3O[C@H]1C[C@H](N)[C@H](O)[C@H](C)O1 [doxorubicin, reference compound] |  |  |  |  |  |  |  |  |  |  |  |  |  |  |  | IC50 ([2]; 72 h): 0.29 µM; IC50 at 72 h ([3]; Cytotoxic activity IC50, HaCaT): 0.31 µM
